For 31 compounds, IC50 results are on record in patent US7879848B2, “Dipeptidyl Peptidase-IV inhibiting compounds, method of preparing the same, and pharmaceutical compositions containing the same as an active agent” (LG Life Sciences, Ltd., priority 2005, dated 2011).

Bounds are passed on as bounds.

As usually defined, the IC50 is the concentration needed to halve the response being measured. Read a low IC50 as higher potency.

T1 sequence (P27487 whole entry): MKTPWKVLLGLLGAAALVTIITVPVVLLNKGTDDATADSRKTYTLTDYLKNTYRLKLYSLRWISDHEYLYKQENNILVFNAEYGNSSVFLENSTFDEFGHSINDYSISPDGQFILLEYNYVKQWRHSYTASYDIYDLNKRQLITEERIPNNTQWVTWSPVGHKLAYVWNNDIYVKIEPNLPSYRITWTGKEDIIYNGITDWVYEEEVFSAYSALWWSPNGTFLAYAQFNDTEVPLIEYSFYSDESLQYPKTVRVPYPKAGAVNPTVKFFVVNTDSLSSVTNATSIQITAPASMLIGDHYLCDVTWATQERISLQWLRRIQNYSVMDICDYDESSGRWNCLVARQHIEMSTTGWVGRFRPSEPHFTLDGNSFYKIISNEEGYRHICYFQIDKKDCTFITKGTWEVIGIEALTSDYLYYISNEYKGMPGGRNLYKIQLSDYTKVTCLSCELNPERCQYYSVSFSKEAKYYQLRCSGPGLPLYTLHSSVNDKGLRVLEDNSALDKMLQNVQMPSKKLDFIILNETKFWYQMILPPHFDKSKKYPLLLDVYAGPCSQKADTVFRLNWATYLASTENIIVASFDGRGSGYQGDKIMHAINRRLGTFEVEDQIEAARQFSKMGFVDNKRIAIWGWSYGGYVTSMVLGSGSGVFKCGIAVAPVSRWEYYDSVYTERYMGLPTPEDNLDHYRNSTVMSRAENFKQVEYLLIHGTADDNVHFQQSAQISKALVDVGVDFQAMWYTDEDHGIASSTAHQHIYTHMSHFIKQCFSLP

The assay concerns the target T1, Dipeptidyl Peptidase-IV (DPP-IV) (Homo sapiens, UniProt P27487).
T1 construct: made in house
The experiment in a line: Measurement of DPP-IV Activity-Inhibiting Ability (fluorescent substrate Ac-Gly-Pro-AFC). In kind it is biochemical. To be noted: 25° C., 50 mmol HEPES (pH 7.4), DP-IV 7.1 nM, enzyme reaction for 1 hour. In short, it runs like this: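 Baculovirus-expressed, nickel-purified enzyme (7.1 nM) was reacted with 100 µM Ac-Gly-Pro-AFC in 50 mmol HEPES pH 7.4 at 25 °C across a range of inhibitor concentrations. Product fluorescence was read at excitation 400 nm and emission 505 nm.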
`N[C@@H](CC(=O)N1CCc2c(nc(CC3CC3)nc2C(F)(F)F)C1)CN1CC(F)(F)CCC1=O` [Ex. 55, 1-{(2S)-2-amino-4-[2-(cyclopropylmethyl)-4-(trifluoromethyl)-5,8-dihydropyrido[3,4-d]pyrimidin-7(6H)-yl]-4-oxobutyl}-5,5-difluoropiperidin-2-one]: 20 nM corresponded to half-maximal inhibition (IC50).
Turning to `C[C@H]1CN(C[C@@H](N)CC(=O)N2CCc3c(nc(C4CC4)nc3C(F)(F)F)C2)C(=O)CO1` [Ex. 27, (6S)-4-{(2S)-2-amino-4-[2-cyclopropyl-4-(trifluoromethyl)-5,8-dihydropyrido[3,4-d]pyrimidin-7(6H)-yl]-4-oxobutyl}-6-methylmorpholine-3-one], the IC50 is 28 nM.
With `N[C@@H](CC(=O)N1CCn2c(nnc2C(F)(F)F)C1)CN1CC(C(F)(F)F)CCC1=O` (stereo partly drawn) [Ex. 15, 1-[2S-amino-4-oxo-4-(3-trifluoromethyl-5,6-dihydro-8H-[1,2,4]triazolo[4,3-a]pyrazin-7-yl)-butyl]-5-trifluoromethyl-piperidin-2-one], half-maximal inhibition (IC50) was put at 2500 nM.
As for `C[C@H]1CN(C[C@@H](N)CC(=O)N2CCc3c(nc(C(F)(F)F)nc3C(F)(F)F)C2)C(=O)CO1` [Ex. 84], 38 nM corresponded to half-maximal inhibition (IC50).
In turn, `C[C@H]1CCC(=O)N(C[C@@H](N)CC(=O)N2CCc3c(nc(C(F)(F)F)nc3C(F)(F)F)C2)C1` [Ex. 80] came in with an IC50 of 8850 nM.
Take `C[C@@H]1CCC(=O)N(C[C@@H](N)CC(=O)N2CCc3c(nc(C4CC4)nc3C(F)(F)F)C2)C1` [Ex. 26, 1-{(2S)-2-amino-4-[2-cyclopropyl-4-(trifluoromethyl)-5,8-dihydropyrido[3,4-d]pyrimidin-7(6H)-yl]-4-oxobutyl}-5-methylpiperidin-2-one]: the 50% inhibitory concentration (IC50) came to 5 nM.
`C[C@@H]1CCC(=O)N(C[C@@H](N)CC(=O)N2CCc3c(nc(CF)nc3C(F)(F)F)C2)C1` [Ex. 101, (5R)-1-{(2S)-2-amino-4-[2-(fluoromethyl)-4-(trifluoromethyl)-5,8-dihydropyrido[3,4-d]pyrimidin-7(6H)-yl]-4-oxobutyl}-5-methylpiperidin-2-one] displayed an IC50 of 21 nM.
In the case of `N[C@@H](CC(=O)N1CCn2c(nnc2C(F)(F)F)C1)CN1CCOC1=O` [Ex. 1, 3-[2S-amino-4-oxo-4-(3-trifluoromethyl-5,6-dihydro-8H-[1,2,4]triazolo[4,3-a]pyrazin-7-yl)-butyl]-oxazolidin-2-one], the IC50 was more than 10000 nM.
With `Cc1nc2c(c(C(F)(F)F)n1)CCN(C(=O)C[C@H](N)CN1CC(F)(F)CCC1=O)C2` [Ex. 85, 1-{(2S)-2-amino-4-[2-methyl-4-(trifluoromethyl)-5,8-dihydropyrido[3,4-d]pyrimidin-7(6H)-yl]-4-oxobutyl}-5,5-difluoropiperidin-2-one], the IC50 was 16 nM.
In turn, `C[C@@H]1CCC(=O)N(C[C@@H](N)CC(=O)N2CCc3sc(-c4ccc(F)cc4)nc3C2)C1` [Ex. 44, (5R)-1-{(2S)-2-amino-4-[2-(4-fluorophenyl)-6,7-dihydro[1,3]thiazolo[4,5,c]pyridin-5(4H)-yl]-4-oxobutyl}-5-methylpiperidin-2-one] came in with an IC50 of 13 nM.
`CC1CC(=O)N(C[C@@H](N)CC(=O)N2CCc3c(nc(-c4ccoc4)nc3C(F)(F)F)C2)C1` (stereo partly drawn) [Ex. 106, 1-{(2S)-2-amino-4-[2-(3-furyl)-4-(trifluoromethyl)-5,8-dihydropyrido[3,4-d]pyrimidin-7(6H)-yl]-4-oxobutyl}-4-methylpyrrolidin-2-one] came in with an IC50 of 45 nM.
The value for `CCCc1nc2c(c(C(F)(F)F)n1)CCN(C(=O)C[C@H](N)CN1C[C@H](C)CCC1=O)C2` [Ex. 99, (5R)-1-{(2S)-2-amino-4-oxo-4-[2-propyl-4-(trifluoromethyl)-5,8-dihydropyrido[3,4-d]pyrimidin-7(6H)-yl]butyl}-5-methylpiperidin-2-one] was 19 nM; that for `N[C@@H](CC(=O)N1CCc2c(nc(-c3ccccc3)nc2C(F)(F)F)C1)CN1CC(F)(F)CCC1=O` [Ex. 24, 1-{(2S)-2-amino-4-oxo-4-[2-phenyl-4-(trifluoromethyl)-5,8-dihydropyrido[3,4-d]pyrimidin-7(6H)-yl]butyl}-5,5-difluoropiperidin-2-one] was 66 nM; that for `N[C@@H](CC(=O)N1CCc2sc(C3CCOCC3)nc2C1)CN1CC(F)(F)CCC1=O` [Ex. 49, 1-{(2S)-2-amino-4-oxo-4-[2-(tetrahydro-2H-pyran-4-yl)-6,7-dihydro[1,3]thiazolo[4,5, c]pyridin-5(4H)-yl]butyl}-5,5-difluoropiperidin-2-one] was 236 nM.
The compound `C[C@H]1CN(C[C@@H](N)CC(=O)N2CCc3c(nc(C4CCCC4)nc3C(F)(F)F)C2)C(=O)CO1` [Ex. 39] registered an IC50 of 51 nM.
Consider `C[C@@H]1CCC(=O)N(C[C@@H](N)CC(=O)N2CCc3c(nc(C4CCC4)nc3C(F)(F)F)C2)C1` [Ex. 112, (5R)-1-{(2S)-2-amino-4-[2-cyclobutyl-4-(trifluoromethyl)-5,8-dihydropyrido[3,4-d]pyrimidin-7(6H)-yl]-4-oxobutyl}-5-methylpiperidin-2-one], for which the IC50 amounted to 10 nM.
In the case of `C[C@H]1CN(C[C@@H](N)CC(=O)N2CCc3sc(C(F)(F)F)nc3C2)C(=O)CO1` [Ex. 50, (6S)-4-{(2S)-2-amino-4-oxo-4-[2-(trifluoromethyl)-6,7-dihydro[1,3]thiazolo[4,5,c]pyridin-5(4H)-yl]butyl}-6-methylmorpholine-3-one], the IC50 was determined as 422 nM.
`C[C@@H]1CCC(=O)N(C[C@@H](N)CC(=O)N2CCc3c(nc(-c4ccncc4)nc3C(F)(F)F)C2)C1` [Ex. 56, (5R)-1-{(2S)-2-amino-4-oxo-4-[2-pyridin-4-yl-4-(trifluoromethyl)-5,8-dihydropyrido[3,4-d]pyrimidin-7(6H)-yl]butyl}-5-methylpiperidin-2-one]: the IC50 turned out to be 11 nM.
On to `C[C@H]1CN(C[C@@H](N)CC(=O)N2CCc3c(ncnc3C(F)(F)F)C2)C(=O)CO1` [Ex. 88, (6S)-4-{(2S)-2-amino-4-oxo-4-[4-(trifluoromethyl)-5,8-dihydropyrido[3,4-d]pyrimidin-7(6H)-yl]butyl}-6-methylmorpholine-3-one], for which the IC50 came to 48 nM.
`C[C@@H]1CCC(=O)N(C[C@@H](N)CC(=O)N2CCc3c(nc(C4CCCC4)nc3C(F)(F)F)C2)C1` [Ex. 38, (5R)-1-{(2S)-2-amino-4-[2-cyclopentyl-4-(trifluoromethyl)-5,8-dihydropyrido[3,4-d]pyrimidin-7(6H)-yl]-4-oxobutyl}-5-methylpiperidin-2-one] registered an IC50 of 20 nM.
On to `C[C@H]1CCC(=O)N(C[C@@H](N)CC(=O)N2CCn3c(nnc3C(F)(F)F)C2)C1` [Ex. 79, (5S)-1-{(2S)-2-amino-4-oxo-4-[3-(trifluoromethyl)-5,6-dihydro[1,2,4]triazolo[4,3-a]pyrazin-7(8H)-yl]butyl}-5-methylpiperidin-2-one], for which half-maximal inhibition (IC50) required 385 nM.
With `N[C@@H](CC(=O)N1CCc2c(nc(C(F)(F)F)nc2C(F)(F)F)C1)CN1CC(C(F)(F)F)CCC1=O` (stereo partly drawn) [Ex. 107, 1-{(2S)-2-amino-4-[2,4-bis(trifluoromethyl)-5,8-dihydropyrido[3,4-d]pyrimidin-7(6H)-yl]-4-oxobutyl}-5-(trifluoromethyl)piperidin-2-one] the figure was 636 nM; with `C[C@@H]1CCC(=O)N(C[C@@H](N)CC(=O)N2CCc3c(nc(-c4ccoc4)nc3C(F)(F)F)C2)C1` [Ex. 66, (5R)-1-{(2S)-2-amino-4-[2-(3-furyl)-4-(trifluoromethyl)-5,8-dihydropyrido[3,4-d]pyrimidin-7(6H)-yl]-4-oxobutyl}-5-methylpiperidin-2-one], 16 nM.
With `CC1CC(=O)N(C[C@@H](N)CC(=O)N2CCn3c(nnc3C(F)(F)F)C2)C1` (stereo partly drawn) [Ex. 4, 1-[2S-amino-4-oxo-4-(3-trifluoromethyl-5,6-dihydro-8H-[1,2,4]triazolo[4,3-a]pyrazin-7-yl)-butyl]-4-methyl-pyrrolidin-2-one] the figure was 127 nM.
For the compound `N[C@@H](CC(=O)N1CCn2c(nnc2C(F)(F)F)C1)CN1CCCC1=O` [Ex. 6, 1-[2S-amino-4-oxo-4-(3-trifluoromethyl-5,6-dihydro-8H-[1,2,4]triazolo[4,3-a]pyrazin-7-yl)-butyl]-pyrrolidin-2-one], the midpoint of inhibition, the IC50, lay at 989 nM.
With `CC1CN(C[C@@H](N)CC(=O)N2CCn3c(nnc3C(F)(F)F)C2)C(=O)O1` (stereo partly drawn) [Ex. 2, 3-[2S-amino-4-oxo-4-(3-trifluoromethyl-5,6-dihydro-8H-[1,2,4]triazolo[4,3-a]pyrazin-7-yl)-butyl]-5-methyl-oxazolidin-2-one] the figure was 950 nM.
`C[C@H]1CN(C[C@@H](N)CC(=O)N2CCc3c(nc(-c4cccc(F)c4)nc3C(F)(F)F)C2)C(=O)CO1` [Ex. 33] gave an IC50 of 170 nM.
The compound `C[C@@H]1CCC(=O)N(C[C@@H](N)CC(=O)N2CCc3c(nc(CC4CC4)nc3C(F)(F)F)C2)C1` [Ex. 54, (5R)-1-{(2S)-2-amino-4-[2-(cyclopropylmethyl)-4-(trifluoromethyl)-5,8-dihydropyrido[3,4-d]pyrimidin-7(6H)-yl]-4-oxobutyl}-5-methylpiperidin-2-one] yielded an IC50 of 30 nM.
In turn, `CCc1nc2c(c(C(F)(F)F)n1)CCN(C(=O)C[C@H](N)CN1C[C@H](C)CCC1=O)C2` [Ex. 95, (5R)-1-{(2S)-2-amino-4-[2-ethyl-4-(trifluoromethyl)-5,8-dihydropyrido[3,4-d]pyrimidin-7(6H)-yl]-4-oxobutyl}-5-methylpiperidin-2-one] had an IC50 of 13 nM.
On to `CC1CC(=O)N(C[C@@H](N)CC(=O)N2CCc3ccccc3C2)C1` (stereo partly drawn) [Ex. 18, 1-[2S-amino-4-(3,4-dihydro-1H-isoquinolin-2-yl)-4-oxo-butyl]-4-methyl-pyrrolidin-2-one], for which half-maximal inhibition (IC50) was put at 816 nM.
`Cc1nc2c(c(C(F)(F)F)n1)CCN(C(=O)C[C@H](N)CN1C[C@H](C)CCC1=O)C2` [Ex. 81, (5R)-1-{(2S)-2-amino-4-[2-methyl-4-(trifluoromethyl)-5,8-dihydropyrido[3,4-d]pyrimidin-7(6H)-yl]-4-oxobutyl}-5-methylpiperidin-2-one] returned an IC50 of 10 nM.
